Like-named read-outs stand apart in the source and are kept apart here.
Key:
[1] = target: PKM2 (Homo sapiens, UniProt P14618); test: PKM2 Biochemical Assay; details: for Max. Resp.: % maximum response in a biochemical assay as compared with Fructose 1,6-bisphosphate
Protocol: Full length, human PKM2 enzyme was obtained from Promab (Richmond, Calif.). All reagents, unless otherwise noted, were obtained from Sigma (St. Louis, Mo.).
Compounds were pre-incubated with 2 nM PKM2 in reaction buffer (50 mM Tris-HCl, pH 8.0, 200 mM KCl, 30 mM MgCl2, 2 mM DTT, 5% DMSO) for 30 min at ambient temperature. […] After 30 min, ATP formation was measured by Kinase Glo (Promega, Madison, Wis.), and AC50 values were determined using Prism (GraphPad Software, Inc., La Jolla, Calif.).

[2] = test system: PC3 cells; test: Cell Proliferation Assay, PC3; assay type: cell-based; details: Homo sapiens, PC-3; PC3, BME media lacking nonessential amino acids, 72 hours, ATPlite; read-out: Percent viability (EC50), Average
Protocol: (§1) Cells were seeded at 5000 cells per well (in 96-well plate) in BME media lacking nonessential amino acids+5% dialyzed serum. After 18 hours, DMSO or compound in 0.1% final concentration DMSO was added.
(§2) Percent viability (EC50) of A549 and PC3 cells was tested against certain exemplary compounds according to the above general procedures.

[3] = test system: A549 cells; test: Cell Proliferation Assay, A549; assay type: cell-based; details: Homo sapiens; A549, BME media lacking nonessential amino acids, 72 hours, ATPlite; read-out: Percent viability (EC50), Average
Protocol: as §1, §2

Sequence of PKM2 (P14618 whole entry): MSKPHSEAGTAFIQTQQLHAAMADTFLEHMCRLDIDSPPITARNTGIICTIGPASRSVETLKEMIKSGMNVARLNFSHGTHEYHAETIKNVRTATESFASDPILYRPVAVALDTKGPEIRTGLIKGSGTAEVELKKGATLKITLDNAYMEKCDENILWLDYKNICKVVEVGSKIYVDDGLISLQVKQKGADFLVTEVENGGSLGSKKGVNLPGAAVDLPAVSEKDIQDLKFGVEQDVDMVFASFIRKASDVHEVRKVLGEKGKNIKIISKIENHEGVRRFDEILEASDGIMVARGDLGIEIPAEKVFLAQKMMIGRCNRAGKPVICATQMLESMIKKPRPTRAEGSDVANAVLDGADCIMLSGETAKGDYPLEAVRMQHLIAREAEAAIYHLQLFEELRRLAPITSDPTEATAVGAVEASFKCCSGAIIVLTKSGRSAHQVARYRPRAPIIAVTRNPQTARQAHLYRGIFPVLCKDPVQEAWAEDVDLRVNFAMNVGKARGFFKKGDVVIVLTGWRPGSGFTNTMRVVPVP

Row | SMILES | Max. Resp. [1] | EC50 [2] | EC50 [3] | further results
1 | CO[C@H]1CC[C@H](N(Cc2ccccc2F)C(=O)c2cc(C(F)(F)F)n[nH]2)CC1 [Example 47, N-(2-FLUOROBENZYL)-N-(TRANS-4-METHOXYCYCLOHEXYL)-3-(TRIFLUOROMETHYL)-1H-PYRAZOLE-5-CARBOXAMIDE] | 89% | 383 nM | 188 nM | 
2 | CO[C@H]1CC[C@H](N(Cc2cccc(N)c2)C(=O)c2cc(C(F)(F)F)n[nH]2)CC1 [Example 54] | 93% | 193 nM | 102 nM | 
3 | O=C(c1cc(C(F)(F)F)n[nH]1)N(CCC1CCS(=O)(=O)C1)Cc1ccccc1Cl (stereo not drawn) [Example 62, N-(2-chlorobenzyl)-N-(2-(1,1-dioxidotetrahydrothiophen-3-yl)ethyl)-3-(trifluoromethyl)-1H-pyrazole-5-carboxamide] | 105% | 166 nM | 108 nM | 
4 | O=C(c1cc(C(F)(F)F)n[nH]1)N(CCC1CCS(=O)(=O)CC1)Cc1ccccc1Cl [Example 75, N-(2-chlorobenzyl)-N-(2-(1,1-dioxidotetrahydro-2H-thiopyran-4-yl)ethyl)-3-(trifluoromethyl)-1H-pyrazole-5-carboxamide] | 102% | 223 nM | 148 nM | 
5 | Nc1cccc(F)c1CN(CCC1CCS(=O)(=O)CC1)C(=O)c1cc(C(F)(F)F)n[nH]1 [Example 91, N-(2-amino-6-fluorobenzyl)-N-(2-(1,1-dioxidotetrahydro-2H-thiopyran-4-yl)ethyl)-3-(trifluoromethyl)-1H-pyrazole-5-carboxamide] |  | 47.3 nM | 20.3 nM | 
6 | CC(CN(Cc1c(N)cccc1Cl)C(=O)c1cc(C(F)(F)F)n[nH]1)N1CCCC1 (stereo not drawn) [Example 221, N-(2-amino-6-chlorobenzyl)-3-(trifluoromethyl)-N-(2-(pyrrolidin-1-yl)propyl)-1H-pyrazole-5-carboxamide] | 60% |  |  | 
7 | Nc1cccc(Cl)c1CN(CCN1CCCC1)C(=O)c1cc(C(F)(F)F)n[nH]1 [Example 222, N-(2-amino-6-chlorobenzyl)-3-(trifluoromethyl)-N-(2-(pyrrolidin-1-yl)ethyl)-1H-pyrazole-5-carboxamide] | 100% |  |  | 
8 | CCCN(CC)CCN(Cc1c(N)cccc1Cl)C(=O)c1cc(C(F)(F)F)n[nH]1 [Example 223, N-(2-chloro-6-aminobenzyl)-N-(2-(ethyl-propylamino)ethyl)-3-(trifluoromethyl)-1H-pyrazole-5-carboxamide] | 100% | 54 nM | 33.5 nM | 
9 | Nc1cccc(Cl)c1CN(CCN1CCS(=O)(=O)CC1)C(=O)c1cc(C(F)(F)F)n[nH]1 [Example 224, N-(2-amino-6-chlorobenzyl)-N-(2-(4-dioxothiomorpholino)ethyl)-3-(trifluoromethyl)-1H-pyrazole-5-carboxamide] | 100% |  |  | 
10 | Nc1cccc(Cl)c1CN(CCN1CCCC(O)C1)C(=O)c1cc(C(F)(F)F)n[nH]1 (stereo not drawn) [Example 225, N-(2-amino-6-chlorobenzyl)-3-(trifluoromethyl)-N-(2-(3-hydroxypiperidin-1-yl)ethyl)-1H-pyrazole-5-carboxamide] | 100% |  |  | 
11 | O=C(c1cc(C(F)(F)F)n[nH]1)N(Cc1ccccc1Cl)CC1CCN1 (stereo not drawn) [Example 227, N-(2-chlorobenzyl)-N-((azetidin-2-yl)methyl)-3-(trifluoromethyl)-1H-pyrazole-5-carboxamide] | 100% | 1310 nM | 928 nM | 
12 | CS(=O)(=O)N1CCCC(CCN(Cc2ccccc2Cl)C(=O)c2cc(C(F)(F)F)n[nH]2)C1 (stereo not drawn) [Example 228, N-(2-chlorobenzyl)-N-(2-(1-(methylsulfonyl)piperidin-3-yl)ethyl)-3-(trifluoromethyl)-1H-pyrazole-5-carboxamide] | 100% |  |  | 
13 | O=C(c1cc(C(F)(F)F)n[nH]1)N(CCc1ccc(O)cc1)Cc1ccccc1Cl [Example 230, N-(2-chlorobenzyl)-N-(4-hydroxyphenethyl)-3-(trifluoromethyl)-1H-pyrazole-5-carboxamide] | 100% |  |  | 
14 | CCN1CCCC1CN(Cc1ccccc1Cl)C(=O)c1cc(C(F)(F)F)n[nH]1 (stereo not drawn) [Example 231, N-(2-chlorobenzyl)-N-((1-ethylpyrrolidin-2-yl)methyl)-3-(trifluoromethyl)-1H-pyrazole-5-carboxamide] | 65% |  |  | AC50 [1]: 148 nM
15 | O=C(c1cc(C(F)(F)F)n[nH]1)N(Cc1ccccc1Cl)CC1CCCN1 (stereo not drawn) [Example 232, N-(2-chlorobenzyl)-3-(trifluoromethyl)-N-((pyrrolidin-2-yl)methyl)-1H-pyrazole-5-carboxamide] | 85% |  |  | 
16 | Nc1cccc(Cl)c1CN(CC1CCN1)C(=O)c1cc(C(F)(F)F)n[nH]1 (stereo not drawn) [Example 233, N-(2-amino-6-chlorobenzyl)-N-((azetidin-2-yl)methyl)-3-(trifluoromethyl)-1H-pyrazole-5-carboxamide] | 75% |  |  | 
17 | Nc1cccc(Cl)c1CN(CCN1CCC(O)C1)C(=O)c1cc(C(F)(F)F)n[nH]1 (stereo not drawn) [Example 234, N-(2-amino-6-chlorobenzyl)-3-(trifluoromethyl)-N-(2-(3-hydroxypyrrolidin-1-yl)ethyl)-1H-pyrazole-5-carboxamide] | 100% | 92.4 nM | 45.8 nM | 
18 | COC1CCN(CCN(Cc2c(N)cccc2Cl)C(=O)c2cc(C(F)(F)F)n[nH]2)C1 (stereo not drawn) [Example 235, N-(2-amino-6-chlorobenzyl)-3-(trifluoromethyl)-N-(2-(3-methoxypyrrolidin-1-yl)ethyl)-1H-pyrazole-5-carboxamide] | 100% |  |  | 
19 | Nc1cccc(Cl)c1CN(CCN1CCCC(F)C1)C(=O)c1cc(C(F)(F)F)n[nH]1 (stereo not drawn) [Example 236, N-(2-amino-6-chlorobenzyl)-3-(trifluoromethyl)-N-(2-(3-fluoropiperidin-1-yl)ethyl)-1H-pyrazole-5-carboxamide] | 73% | 33 nM | 8.1 nM | 
20 | COC1CCCN(CCN(Cc2c(N)cccc2Cl)C(=O)c2cc(C(F)(F)F)n[nH]2)C1 (stereo not drawn) [Example 237, N-(2-amino-6-chlorobenzyl)-3-(trifluoromethyl)-N-(2-(3-methoxypiperidin-1-yl)ethyl)-1H-pyrazole-5-carboxamide] | 100% |  |  | 
21 | Nc1cccc(Cl)c1CN(CCN1CCCOCC1)C(=O)c1cc(C(F)(F)F)n[nH]1 [Example 239, N-(2-(1,4-oxazepan-4-yl)ethyl)-N-(2-amino-6-chlorobenzyl)-3-(trifluoromethyl)-1H-pyrazole-5-carboxamide] | 100% | 129 nM | 73.1 nM | 
22 | CCCN(CC)CCN(Cc1c(N)cccc1F)C(=O)c1cc(C(F)(F)F)n[nH]1 [Example 240, N-(2-fluoro-6-aminobenzyl)-N-(2-(ethyl-propylamino)ethyl)-3-(trifluoromethyl)-1H-pyrazole-5-carboxamide] | 100% |  |  | 
23 | Nc1cccc(Cl)c1CN(CCN1CC[C@H](F)C1)C(=O)c1cc(C(F)(F)F)n[nH]1 [Example 241, N-(2-amino-6-chlorobenzyl)-3-(trifluoromethyl)-N-(2-((S)-3-fluoropyrrolidin-1-yl)ethyl)-1H-pyrazole-5-carboxamide] | 100% |  |  | 
24 | Nc1cccc(Cl)c1CN(CCN1CC[C@@H](F)C1)C(=O)c1cc(C(F)(F)F)n[nH]1 [Example 242, N-(2-amino-6-chlorobenzyl)-3-(trifluoromethyl)-N-(2-((R)-3-fluoropyrrolidin-1-yl)ethyl)-1H-pyrazole-5-carboxamide] | 100% |  |  | 
25 | Nc1cccc(Cl)c1CN(CCN1CCCC(F)CC1)C(=O)c1cc(C(F)(F)F)n[nH]1 (stereo not drawn) [Example 243, N-(2-amino-6-chlorobenzyl)-N-(2-(4-fluoroazepan-1-yl)ethyl)-3-(trifluoromethyl)-1H-pyrazole-5-carboxamide] | 100% |  |  | 
26 | O=C(c1cc(Br)n[nH]1)N(Cc1ccc(O)cc1F)CC1CCC1 [Example 245] | 100% |  |  | 
27 | O=C(c1cc(C2CC2)n[nH]1)N(Cc1ccc(O)cc1F)CC1CCC1 [Example 246] | 85% |  |  | AC50 ([1]; read-out: PKM2 AC50, 2 nM PKM2, 75 μM ADP, 15 μM PEP, Kinase Glo): 92 nM
28 | O=C(COP(=O)(O)O)[C@@H](O)[C@H](O)[C@H](O)COP(=O)(O)O [FBP, fructose-1,6-bisphosphate, reference compound] |  |  |  | Emax ([1]; read-out: % FBP (extent of maximal activation, relative to FBP)): 100%; AC50 ([1]; read-out: AC50 (concentration of half-maximal PKM2 activation), Table 2, n = 6 to 10): 23 ± 8 nM; Maximal PKM2 activity ([1]; relative to activity in DMSO controls (normalized to 100%), FIG. 1B): approximately 600%

— patent US10766865B2, “PKM2 modulators and methods for their use” (TOLERO PHARMACEUTICALS, INC., priority 2012, dated 2020)
